Our source for the IC50 values is patent US20250340572A1, “COMPOSITIONS USEFUL FOR MODULATING SPLICING” (Skyhawk Therapeutics, Inc., priority 2022, published 2025).

For test [1], the system named is ATXN3 transcripts containing exon 4 (E4E5). The test is described as follows: ATXN3 quantitative splicing assay (qPCR, E4E5 primers/probe). Particulars: Homo sapiens; SK-N-MC cells, 24 h treatment, qPCR of exon 4 containing transcripts. In kind it is cell-based. The procedure:
Human neuroblastoma SK-N-MC cells were plated in 384-well plates at 20,000 cells/well. Twenty-four hours after plating, cells were treated with compounds for 24 h at appropriate concentrations ranging from 30 μM to 0.6 nM (0.300 DMSO). Treated cells were lysed in 15 μL of lysis buffer, and cDNA was synthesized using the Fast Advanced Cells-to-Ct kit. Two μL of each cDNA was used in qPCR reactions to confirm the exon 4 skipped transcripts of ATXN3. A second set of primers/probe E4E5 was used to detect the transcripts containing exon 4. The third set of primers/probe E8E9 was used to detect total gene level of ATXN3. The qPCR reactions were prepared in 384-well plates in 10 μL volume, using TaqMan™ Fast Advanced Master Mix with primers and probes shown in the table below. Reactions were run in a Quant Studio 6 qPCR instrument with default settings.
The primers and probes are listed below in Table 5.
(In general: In qPCR the cycle at which signal appears reflects the starting amount.)

In test [2] the test system is total ATXN3 protein. The test is described as follows: ATXN3 total protein assay (MSD). In kind it is cell-based. Particulars: Homo sapiens, SK-N-MC cells, 48 h incubation. The protocol:
Human neuroblastoma SK-N-MC cells were seeded at 10,000 cells/well in 384 well plates one day prior to compound treatment. The concentrations of compounds were tested at appropriate doses ranging from 30 μM to 0.6 nM. After incubation for 48 hours, the cells were lysed with 25 μL of lysis buffer containing protease inhibitors, and total ATXN3 protein levels were assessed by Mesoscale Discovery (MSD) assay developed with one pair of anti-ATXN3 antibodies. The capture and detect antibodies were raised in mouse and rabbit respectively. Anti-rabbit MSD-ST antibody was used for secondary antibody.
ATXN3 recombinant protein was used for standards. The readouts were captured with 35 μL of MSD read buffer and multi-array 384-well high binding plates.

With `CC#Cc1c(C[C@H](C)N)sc2c(NCc3cccs3)snc12` [Compound 1, 7-[(S)-2-aminopropyl]-8-(1-propynyl)-4-thenylamino-3,6-dithia-2-azabicyclo[3.3.0]octa-1,4,7-triene], the IC50 in test [1] and in test [2] was 101 to 500 nM each time.

For the compound `C[C@H](N)Cc1sc2c(NCc3cccs3)snc2c1C#Cc1ccccc1` [Compound 2, 7-[(S)-2-aminopropyl]-8-(2-phenylethynyl)-4-thenylamino-3,6-dithia-2-azabicyclo[3.3.0]octa-1,4,7-triene], the IC50 in test [1] was in the range of 5000 to 10000 nM; in test [2], 501 to 5000 nM.

`CC(C)C#Cc1c(C[C@H](C)N)sc2c(NCc3cccs3)snc12` [Compound 4, 7-[(S)-2-aminopropyl]-8-(3-methyl-1-butynyl)-4-thenylamino-3,6-dithia-2-azabicyclo[3.3.0]octa-1,4,7-triene]: the IC50 in test [1] and in test [2] was 5000 to 10000 nM in each case.

Turning to `CC(C)C#Cc1c(C[C@H](C)N)sc2c(NCc3ccco3)snc12` [Compound 5, 7-[(S)-2-aminopropyl]-4-(furfurylamino)-8-(3-methyl-1-butynyl)-3,6-dithia-2-azabicyclo[3.3.0]octa-1,4,7-triene], the concentration for half-maximal inhibition (IC50) in test [1] and in test [2] was 501 to 5000 nM in each case.

In the case of `C[C@H](N)Cc1sc2c(NCc3cccs3)snc2c1C#CC1CC1` [Compound 6, 7-[(S)-2-aminopropyl]-8-(2-cyclopropylethynyl)-4-thenylamino-3,6-dithia-2-azabicyclo[3.3.0]octa-1,4,7-triene], the concentration for half-maximal inhibition (IC50) in test [1] fell in the range of 101 to 500 nM; in test [2] it was 501 to 5000 nM.

Regarding `C[C@H](N)Cc1sc2c(NCc3ccco3)snc2c1C#CC1CC1` [Compound 7, 7-[(S)-2-aminopropyl]-8-(2-cyclopropylethynyl)-4-(furfurylamino)-3,6-dithia-2-azabicyclo[3.3.0]octa-1,4,7-triene], the 50% inhibitory concentration (IC50) was in the range of 101 to 500 nM in test [1] and 501 to 5000 nM in test [2].

For the compound `CC#Cc1c(C[C@@H](N)CO)sc2c(NCc3cccs3)snc12` [Compound 8, (R)-2-amino-3-{8-(1-propynyl)-4-thenylamino-3,6-dithia-2-azabicyclo[3.3.0]octa-1,4,7-trien-7-yl}-1-propanol], the IC50 in test [1] fell in the range of 0.01 to 100 nM; in test [2], 101 to 500 nM.

Turning to `CC#Cc1c(C[C@@H](N)CO)sc2c(NCc3ccco3)snc12` [Compound 9, (R)-2-amino-3-{4-(furfurylamino)-8-(1-propynyl)-3,6-dithia-2-azabicyclo[3.3.0]octa-1,4,7-trien-7-yl}-1-propanol], the IC50 in test [1] and in test [2] was 0.01 to 100 nM throughout.

In the case of `CC#Cc1c(C[C@H](C)N)sc2c(NCc3ccco3)snc12` [Compound 10, 7-[(S)-2-aminopropyl]-4-(furfurylamino)-8-(1-propynyl)-3,6-dithia-2-azabicyclo[3.3.0]octa-1,4,7-triene], the 50% inhibitory concentration (IC50) in test [1] and in test [2] was 101 to 500 nM throughout.

Consider `COCC#Cc1c(C[C@H](C)N)sc2c(NCc3ccco3)snc12` [Compound 11, 7-[(S)-2-aminopropyl]-4-(furfurylamino)-8-(3-methoxy-1-propynyl)-3,6-dithia-2-azabicyclo[3.3.0]octa-1,4,7-triene], for which the IC50 in test [1] and in test [2] was 501 to 5000 nM in each case.

For the compound `COCC#Cc1c(C[C@H](C)N)sc2c(NCc3cccs3)snc12` [Compound 15, 7-[(S)-2-aminopropyl]-8-(3-methoxy-1-propynyl)-4-thenylamino-3,6-dithia-2-azabicyclo[3.3.0]octa-1,4,7-triene], the IC50 in test [1] and in test [2] was 10000 to 40000 nM in each case.

In the case of `CCC#Cc1c(C[C@H](C)N)sc2c(NCc3cccs3)snc12` [Compound 16, 7-[(S)-2-aminopropyl]-8-(1-butynyl)-4-thenylamino-3,6-dithia-2-azabicyclo[3.3.0]octa-1,4,7-triene], the half-inhibitory concentration (IC50) in test [1] and in test [2] was 501 to 5000 nM throughout.

For `C[C@H](N)Cc1sc2c(NCc3cccs3)snc2c1C#CCF` [Compound 17, 7-[(S)-2-aminopropyl]-8-(3-fluoro-1-propynyl)-4-thenylamino-3,6-dithia-2-azabicyclo[3.3.0]octa-1,4,7-triene], the IC50 in test [1] was 101 to 500 nM; in test [2] it was 501 to 5000 nM.

As to `CCC#Cc1c(C[C@@H](N)[C@H](C)F)sc2c(NCc3cccs3)snc12` [Compound 20, 7-[(2R,3S)-2-amino-3-fluorobutyl]-8-(1-butynyl)-4-thenylamino-3,6-dithia-2-azabicyclo[3.3.0]octa-1,4,7-triene], the IC50 in test [1] and in test [2] was 101 to 500 nM in each case.

Turning to `CC#Cc1c(C[C@@H](N)[C@H](C)F)sc2c(NCc3ccccc3)snc12` [Compound 21, 7-[(2R,3S)-2-amino-3-fluorobutyl]-4-benzylamino-8-(1-propynyl)-3,6-dithia-2-azabicyclo[3.3.0]octa-1,4,7-triene], the IC50 in test [1] and in test [2] was 501 to 5000 nM throughout.

Turning to `CC#Cc1c(C[C@@H](N)[C@H](C)F)sc2c(NCc3ccco3)snc12` [Compound 22, 7-[(2R,3S)-2-amino-3-fluorobutyl]-4-(furfurylamino)-8-(1-propynyl)-3,6-dithia-2-azabicyclo[3.3.0]octa-1,4,7-triene], the IC50 in test [1] and in test [2] was 0.01 to 100 nM in each case.

Turning to `CC#Cc1c(C[C@@H](N)[C@H](C)F)sc2c(NCc3cccs3)snc12` [Compound 23, 7-[(2R,3S)-2-amino-3-fluorobutyl]-8-(1-propynyl)-4-thenylamino-3,6-dithia-2-azabicyclo[3.3.0]octa-1,4,7-triene], the IC50 in test [1] and in test [2] was 101 to 500 nM in each case.

In the case of `CC#Cc1c(C[C@@H](N)COC)sc2c(NCc3ccccc3)snc12` [Compound 24, 7-[(R)-2-amino-3-methoxypropyl]-4-benzylamino-8-(1-propynyl)-3,6-dithia-2-azabicyclo[3.3.0]octa-1,4,7-triene], the IC50 in test [1] is 10000 to 40000 nM; in test [2] it was 5000 to 10000 nM.

Turning to `CC#Cc1c(C[C@@H](N)COC)sc2c(NCc3ccco3)snc12` [Compound 25, 7-[(R)-2-amino-3-methoxypropyl]-4-(furfurylamino)-8-(1-propynyl)-3,6-dithia-2-azabicyclo[3.3.0]octa-1,4,7-triene], the IC50 in test [1] is 101 to 500 nM; in test [2], 501 to 5000 nM.

Regarding `CC#Cc1c(C[C@@H](N)COC)sc2c(NCc3cccs3)snc12` [Compound 26, 7-[(R)-2-amino-3-methoxypropyl]-8-(1-propynyl)-4-thenylamino-3,6-dithia-2-azabicyclo[3.3.0]octa-1,4,7-triene], the half-inhibitory concentration (IC50) in test [1] and in test [2] was 501 to 5000 nM each time.

Regarding `C[C@H](N)Cc1sc2c(NCc3cccs3)snc2c1C#CCO` [Compound 27, 3-{7-[(S)-2-aminopropyl]-4-thenylamino-3,6-dithia-2-azabicyclo[3.3.0]octa-1,4,7-trien-8-yl}-2-propyn-1-ol], the half-inhibitory concentration (IC50) in test [1] and in test [2] was 501 to 5000 nM each time.

For `CC#Cc1c(C(F)(F)[C@H](C)N)sc2c(NCc3cccs3)snc12` [Compound 28, 7-[(S)-2-amino-1,1-difluoropropyl]-8-(1-propynyl)-4-thenylamino-3,6-dithia-2-azabicyclo[3.3.0]octa-1,4,7-triene], the IC50 in test [1] and in test [2] was 501 to 5000 nM each time.

With `CC#Cc1c(C[C@@H](N)CC2CC2)sc2c(NCc3cccs3)snc12` [Compound 29, 7-[(S)-2-amino-3-cyclopropylpropyl]-8-(1-propynyl)-4-thenylamino-3,6-dithia-2-azabicyclo[3.3.0]octa-1,4,7-triene], the IC50 in test [1] and in test [2] was 501 to 5000 nM throughout.

In the case of `CC#Cc1c(C[C@@H](N)CC2CC2)sc2c(NCc3ccco3)snc12` [Compound 30, 7-[(S)-2-amino-3-cyclopropylpropyl]-4-(furfurylamino)-8-(1-propynyl)-3,6-dithia-2-azabicyclo[3.3.0]octa-1,4,7-triene], the half-inhibitory concentration (IC50) in test [1] and in test [2] was 101 to 500 nM throughout.

Turning to `CC#Cc1c(C[C@@H](N)C(F)F)sc2c(NCc3ccco3)snc12` [Compound 36, 7-[(R)-2-amino-3,3-difluoropropyl]-4-(furfurylamino)-8-(1-propynyl)-3,6-dithia-2-azabicyclo[3.3.0]octa-1,4,7-triene], the concentration for half-maximal inhibition (IC50) in test [1] and in test [2] was 501 to 5000 nM in each case.

In the case of `CC#Cc1c(C[C@@H](N)C(F)F)sc2c(NCc3cccs3)snc12` [Compound 37, 7-[(R)-2-amino-3,3-difluoropropyl]-8-(1-propynyl)-4-thenylamino-3,6-dithia-2-azabicyclo[3.3.0]octa-1,4,7-triene], the half-inhibitory concentration (IC50) in test [1] is 501 to 5000 nM; in test [2] it was 5000 to 10000 nM.

One may read the IC50 as the midpoint of a concentration-inhibition curve. A higher IC50 goes with a need for much substance.
